Measured values published in US20250177478A1, “G ALPHA Q/11 INHIBITORS FOR USE AS AN ANALGESIC” (University of Florida Research Foundation, Incorporated, priority 2022, published 2025).

Experiments:
C57BL/6 mice = conditions: morphine 5 mg/kg s.c. alone, 120 min
From the text: A. Experimental animals. C57BL/6 mice (6-8 weeks old) of both sexes were used. Mice were housed in groups on a 12-h light-dark cycle (6:00 am light cycle; 6:00 pm dark cycle) with food (Teklad Global 16% protein rodent diets; Envigo Inc., WI, USA) and water available ad libitum. Animal groups were compiled to ensure minimization of factors (e.g., weight, sex, and health). Mice were within 20-28 g in weight at start of all studies. All tested groups contained a control group and consisted of male and female mice. Males and females were tested on the same day but at different times so that they were not in the room at the same time. All the experiments were tested during the light cycle between 8:00 am and 3:00 pm to avoid any long-term disruption of sleep cycles. Mice were transferred to the behavioural testing room at least 45 min before the first test to acclimatize. Following behavioural evaluation, animals were killed by CO2 inhalation, followed by cervical dislocation and postmortem decapitation.
B. Drug treatments. […] The dose of YM-254890 for subcutaneous injection was taken from previous published studies. The dose of morphine selected for subcutaneous administration (2.5, 5 and 10 mg kg-1) is commonly used in mouse analgesia. For the combined administration of morphine and YM-254890 on thermal anti-nociception, YM-254890 was administered 10 min before the morphine. The latency of response was measured before injection of drugs (baseline latency response) and at different time intervals (post-treatment latency response) after drugs injection.
C. Intrathecal injections. Intrathecal (i.t.) administration was performed following the method described previously (Hylden J L et al. “Intrathecal morphine in mice: a new technique.” Eur J Pharmacol (1980) 67:313-316; Li D et al. “Direct Intrathecal Injection of Recombinant Adeno-associated Viruses in Adult Mice.” J Vis Exp (2019)) with slight modifications. All intrathecal injections were performed using a 25 μL Hamilton syringe with a 30-gauge needle. The injection volume was 5 μL for each mouse. […] Each solution was injected without injection cannulae. Intrathecal injections were made into the L5-L6 intervertebral space of unanesthetized mice. The flick of the tail was considered indicative of a successful i.t. administration.

DRG nociceptors = assay: Whole cell patch-clamp recordings of acutely dissociated DRG nociceptors; format: cell-based, mouse
Procedure: F. Acutely dissociated dorsal root ganglion (DRG) Preparation. Male or female mice between 1 and 2 months of age were used for acute DRG isolations. […] Dissociated DRG cultures were prepared as previously described (Perner C et al. “Protocol for dissection and culture of murine dorsal root ganglia neurons to study neuropeptide release.” STAR Protoc (2021) 2:100333). Briefly, DRGs were dissected from 1- to 2-month-old mice in Hank's buffered salt solution (HBSS) and digested with Collagenase A and Dispase II for 25 min at 37° C., centrifuged at 200×g for 5 min, and washed with Dulbecco's modified Eagle's medium (DMEM) supplemented with 10% fetal bovine serum (FBS), glutamate, sodium pyruvate, 1% penicillin and 1% streptomycin. DRGs were then triturated in Neurobasal A medium supplemented with 10% FBS, 1% penicillin, 1% streptomycin, 1% GlutaMAX, 2% B27, […] nerve growth factor (NGF) and […] glial cell line-derived neurotrophic factor (GDNF). After plating on laminin-coated coverslips, cells were incubated at 37° C. overnight. Experiments were performed the day after dissection.
G. Whole cell patch-clamp recordings. Nociceptors were identified by physiological classification protocols (Petruska J C et al. “Subclassified acutely dissociated cells of rat DRG: histochemistry and patterns of capsaicin-, proton-, and ATP-activated currents.” J Neurophysiol (2000) 84:2365-2379) summarized in FIG. 10 and further by responsivity to morphine. Each experimental group consisted of 12-18 DRG recordings from three animals, 1-2 of which were female. Hyperpolarization-activated current (Ih) and kinetics of resulting transient currents were determined by stepping membrane potential from −60 to −110 mV for 500 ms in 10 mV increments (FIG. 10A). Outward currents were identified by first preconditioning membrane potential at −100 mV for 500 ms and then stepping from −60 to 40 mV in 20 mV increments for 200 ms (FIG. 10D). Inward current dynamics were determined by preconditioning at −80 mV and then stepping from −60 to 40 mV in 10 mV increments (FIG. 10G). A 6-s, 0- to 2-nA continuous ramp stimulation protocol was used to determine rheobase. Membrane capacitance (Cm), series resistance (Rs) and input resistance (Ri) were tested with a hyperpolarizing 10 mV pulse of 10 ms duration initially and at a 30 s interval throughout the recording period. Cells were recorded only if initial series resistance was ≤20 MΩ and excluded if Rs varied >20% while recording. Offline analysis identified clustering of a population n=30 with uniform morphine responsivity that was selected for further analysis, with basal parameters #SEM: Cm=27.31±4.72 pF, Ri=492±19.29 MQ, Ih=7.10±2.45 pA·pF−1, IA tau=8.39±0.41 ms and action potential (AP) tau=1.22±0.08 ms. K+ internal was used for all recordings, containing: 6 mM NaCl, 4 mM NaOH, 130 mM K-gluconate, 11 mM ethylene glycol-bis(β-aminoethyl ether)tetraacetic acid (EGTA), 1 mM CaCl2, 1 mM MgCl2, 10 mM N-(2-hydroxyethyl)piperazine-N′-(2-ethanesulphonic acid) (HEPES), 2 mM Na2ATP, and 0.2 mM Na2GTP 0.2, adjusted to pH 7.3-7.4 with HCl. External artificial CSF contained: 125 mM NaCl, 3 mM KCl, 1.2 mM KH2PO4, 1.2 mM MgSO4, 25 mM NaHCO3, 2 mM CaCl2), and 10 mM dextrose 10, adjusted to pH 7.3-7.4 with HCl.

**Q.** Which results are given for CN1CC[C@]23c4c5ccc(O)c4O[C@H]2[C@@H](O)C=C[C@H]3[C@H]1C5 [morphine]?
**A.** locomotion in open-field test (C57BL/6 mice): locomotor-sensitizing effect; rapidly inactivating A-type potassium currents (IA), voltage-step protocol 2 (DRG nociceptors; YM-254890 or morphine alone): significantly inhibited IA; AP amplitude, voltage-step protocol (DRG nociceptors; bath application alone: 100 nM YM or 1 μM morphine): moderately reduced AP amplitude; excitability of DRG nociceptors (rheobase, 0-2 nA ramp stimulation) (DRG nociceptors; bath application alone: 1 μM morphine or 100 nM YM): substantially decreased excitability
